Laboratory results taken from ChEMBL document CHEMBL2396630, “Backbone cyclic helix mimetic of chemokine (C-C motif) receptor 2: a rational approach for inhibiting dimerization of G protein-coupled receptors” (Bioorg Med Chem, 2013).
Active and inactive are the calls of the source. No cut-off for these calls is given here. Numbered stars: 1 amine (or outer) side, 2 acyl side, 3 side chain; on linkers, the order of the positions; unused ones are H or OH. Bridge positions count the residues as written; N and C are the ends. Square brackets hold non-standard residues; d marks the D form. Peptide text beside a SMILES is read from it. N(2-Aminoethyl)Gly = O=C(CN(CCN[*:3])[*:1])[*:2]; CO = O=C([*:1])[*:2]; Nlys = NCCCCNCC(=O)O

Legend:
Format in all cases: cell-based
[1] = target: C-C chemokine receptor type 2 (Homo sapiens) (UniProt P41597); test: Binding affinity to CCR2 in human THP1 cells assessed as inhibition of MCP1-mediated monocyte migration at 10 uM after 30 mins by Transwell assay relative to untreated control; settings: THP-1
C-C chemokine receptor type 2 (Homo sapiens), sequence (P41597 whole entry, looked up): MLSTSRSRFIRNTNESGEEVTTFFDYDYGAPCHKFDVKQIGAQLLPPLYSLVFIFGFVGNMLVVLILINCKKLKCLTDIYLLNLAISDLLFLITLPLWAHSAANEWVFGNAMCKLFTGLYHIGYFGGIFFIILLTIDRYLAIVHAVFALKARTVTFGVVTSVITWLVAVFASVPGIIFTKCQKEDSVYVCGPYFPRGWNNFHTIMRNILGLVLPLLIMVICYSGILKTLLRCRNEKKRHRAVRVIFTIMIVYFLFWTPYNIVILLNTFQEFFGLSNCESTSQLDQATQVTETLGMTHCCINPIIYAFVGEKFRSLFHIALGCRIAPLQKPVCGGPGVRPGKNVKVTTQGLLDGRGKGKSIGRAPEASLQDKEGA

[2] = target: C-C chemokine receptor type 2 (Homo sapiens) (UniProt P41597); test: Binding affinity to CCR2 in human THP1 cells assessed as inhibition of MCP1-mediated monocyte migration after 30 mins by Transwell assay relative to untreated control; settings: THP-1
[3] = target: C-C chemokine receptor type 2 (Homo sapiens) (UniProt P41597); test: Binding affinity to CCR2 in human THP1 cells assessed as inhibition of monocyte migration after 30 mins by Transwell assay; settings: THP-1
[4] = target: C-C chemokine receptor type 2 (Homo sapiens) (UniProt P41597); test: Binding affinity to CCR2 in human THP1 cells assessed as inhibition of SDF1-mediated monocyte migration after 30 mins by Transwell assay; settings: THP-1
[5] = system: THP-1; test: Cytotoxicity against human THP1 cells assessed as cell death

Compound	inhibition [1]	inhibition [2]	other results
H-LVVLIL-OH	inactive		
CC[C@H](C)[C@H](NC(=O)[C@H](CC(C)C)NC(=O)[C@@H](NC(=O)CN1CCCCNC(=O)NCCNCC(=O)N[C@@H](CCSC)C(=O)N[C@@H](CC(C)C)C1=O)C(C)C)C(=O)N[C@@H](CC(C)C)C(N)=O (H-[N(2-Aminoethyl)Gly]ML[Nlys]VLIL-NH2; linker 1-4 via CO)		inactive	
CC[C@H](C)[C@H](NC(=O)[C@H](CC(C)C)NC(=O)CN1CCCCNC(=O)NCCNCC(=O)N[C@@H](CC(C)C)C(=O)N[C@@H](C(C)C)C1=O)C(=O)N[C@@H](CC(C)C)C(N)=O (H-[N(2-Aminoethyl)Gly]LV[Nlys]LIL-NH2; linker 1-4 via CO)		inactive	
CC[C@H](C)[C@H](NC(=O)[C@H](CC(C)C)NC(=O)[C@@H](N)C(C)C)C(=O)N[C@@H](CC(C)C)C(=O)O (H-VLIL-OH)	inactive		
CC[C@H](C)[C@@H]1NC(=O)[C@H](CC(C)C)NC(=O)CN(C(=O)[C@@H](NC(=O)[C@H](CC(C)C)NC(=O)[C@@H](N)CCSC)C(C)C)CCNC(=O)NCCCCN(CC(N)=O)C1=O (H-MLV[N(2-Aminoethyl)Gly]LI[Nlys]-NH2; linker 4-7 via CO)		Active	inhibition [3]: inactive; inhibition [4]: inactive; Activity [5]: Non-toxic
CC[C@H](C)[C@H](NC(=O)CN1CCCCNC(=O)NCCN(C(=O)[C@@H](N)CCSC)CC(=O)N[C@@H](C(C)C)C(=O)N[C@@H](C(C)C)C1=O)C(=O)N[C@@H](CC(C)C)C(N)=O (H-M[N(2-Aminoethyl)Gly]VV[Nlys]IL-NH2; linker 2-5 via CO)		inactive	
H-MLVVLIL-OH	Active		
H-VVLIL-OH	inactive		
